Where a name gives a salt, the structure may show the parent alone.
Assays:
[1] = test system: cough induced by citric acid aerosol in guinea pigs; experiment: Guinea pig cough test (citric acid aerosol, Charlier procedure); type: in vivo; conditions: Cavia porcellus, inhaled or nasal, antitussive test not given
[2] = test system: pathological sputum of bronchitic rabbits; experiment: Mucus regulating properties in bronchitic rabbits (sputum AUC as % compared to bronchitic controls); type: in vivo, male New Zealand white rabbits; conditions: for mucus regulating activity (in words): rabbit, in vivo; for Fucose (mg/ml), AUC as a 100% compared to bronchitic controls / Galactose (mg/ml), AUC as a 100% compared to bronchitic controls / Mucus production (ml/kg), AUC as a 100% compared to bronchitic controls / Phospholipids (mg/ml), AUC as a 100% compared to bronchitic controls / Protein (mg/ml), AUC as a 100% compared to bronchitic controls / Sialic acid (mg/ml), AUC as a 100% compared to bronchitic controls / Viscosity (cps), AUC as a 100% compared to bronchitic controls: Table 2, oral, equimolecular amounts to S-carboxymethyl cysteine
Protocol: The animals are submitted to inhalation of a 5% H2 SO3 aqueous solution by aerosol (exposition of 3 hours a day for 3 alternate days), to induce a chronic bronchial inflammatory disease which causes a production of pathological sputum in the bronchial tree.
Aim of the experiments is to evaluate modifications of selective parameters such as dry weight of the sputum, viscosity, content in proteins, phospholipids, galactose, sialic acid and fucose, induced in this pathological sputum by pharmacological treatment with the compounds of the invention.
To this purpose, the sputum produced in the bronchial tree is collected daily, through a "T" shaped glass cannula, inserted in the trachea, before and after oral twice a day (9.00 a.m. and 4.00 p.m.) treatment with one of the compounds of the invention.
The schedule treatment procedure is shown in the following Scheme 1: [drawing 21] where 0 indicates the day of implantation of the tracheal cannula; -7-5-3 indicate the days of H2 SO3 treatment (H); 1, 2, 3, 4 indicate the days of oral administration of the compounds of the invention (T) and the time of mucus collection (M).
The mucus collected in day 1 in the morning is considered as a blank; 7 indicates the day of the animal sacrifice after the mucous collection.
The sputum samples are stored in the freezer (-20° C.) until the investigation of biological and rheological parameters is carried out.
The samples are investigated for relative viscosity, measured at 37° C. with a Brookfield viscometer (model LT VD) equipped with a 1,565° cone-plate, and aliquoted for biochemical analysis of protein, phospholipids, galactose, sialic acid and fucose contents. Dry weight of the mucus is also determined. For each parameter, cumulative data are referred to a seven days period after the beginning of the treatment and they are extrapolated using the AUC method (area under curve) calculated by the trapazoidal rule. Finally the data are compared with data obtained from controls (vehicle treatment), non bronchitic rabbits (vehicle treatment) and positive controls bronchitic rabbits treated with 0.153M […].

[3] = test system: cough induced by electric stimulation in dogs; experiment: Dog cough test (cough induced by electric stimulation, Stefko procedure); type: in vivo, conscious mongrel dogs; conditions: for duration of action: in words; for % inhibition of cough stimulus: oral, dose not given; for duration of action (antitussive): test not named
Protocol: (§1) The techniques described by Charlier et al. (Arch. Int. Pharmacodyn. 134, 306, 1961) and by Stefko et al. (J. Pharm. Exp. Therap., 108, 217, 1953), adapted with minor modifications, are used to investigate the antitussive properties of the compounds of the invention. Codeine phosphate is used as positive reference compound.
In the Stefko procedure, conscious mongrel dogs (15±3 kg body weight) are used; the compounds of the invention are tested for their ability to inhibit cough induced by electric stimulation.
Under general anesthesia, two insulated nichrome wires (0.4 mm diameter) are surgically implanted into the submucosa of the trachea.
About two days later, the dogs are placed in a sling and the exteriorized electrodes are connected to an electric stimulating device (such as Grass S 48 Mod.).
The stimulation parameters such as: delay 0.01 msec, duration 1 msec, frequency 30 Hz, are used.
An electrical stimulus of 1 sec is applied 10 times at 5 sec intervals in order to determine the minimum voltage necessary for eliciting reproducible cough responses. Then, tussive responses to the electrical stimuli are registered at 15, 30, 60, 90, 120, 150, 180, 240, 300 and 360 minutes after oral administration of the compounds of the invention.
The tussive responses are scored as follows: 1: no response; 2: sigh or exaggerated expiration; 3: marked cough; 4: one marked cough and one exaggerated expiration: 5: two marked coughs.
Six dogs are employed for each determination and the mean activity is calculated.
The inhibition percent of the cough response and the duration of activity are compared with codeine.

[4] = test system: cough induced by citric acid aerosol in guinea pigs; experiment: Guinea pig cough test (citric acid aerosol, Charlier procedure); type: in vivo
Protocol: as §1
According to the Charlier procedure guinea pigs are exposed to a citric acid aerosol (7.5%) and cough is recorded 60 minutes after the antitussive treatment by i.p. route. Male animals of 300-400 g pigs are placed in perspex box (20×30×30 cm) connected to an aerosol compressor; the animals are subjected to a citric acid saturated atmosphere, 60 minutes after the i.p. injection of a compound of the invention (0.1 and 0.3M solutions; 1 ml/kg).
The total number of cough strokes and the delay of the first cough are recorded during the first five minutes.
Five guinea pigs are used for each dose level and the results are compared with controls (vehicle treatment) and codeine phosphate 0.07M solution (standard treatment).
ED50 and the corresponding delay of first cough stroke are calculated.
The data obtained by i.p. administration are confirmed by oral administration.

[5] = guinea pig cough test, i.p., 60 minutes after treatment

O=C(Cn1ccnc1)N1CCSC1COc1ccccc1O (stereo not drawn) [3-(imidazol-1'-yl)acetyl-2-[(o-hydroxyphenoxy)methyl]thiazolidone]
ED50 [1]: 96 mg/kg | mucus regulating activity (in words) [2]: strong mucus regulating activity

COc1ccccc1OCC1(COc2ccccc2OC)SCCN1C(=O)CSC(C)=O
ED50 [1]: 230 mg/kg | duration of action ([3]; dog cough test): very prolonged action | duration of action relative to codeine phosphate ([3]; dog cough test, longer than codeine phosphate): 2-3 times | % inhibition of cough stimulus ([3]; dog): 13%

C#CCOc1ccccc1OCC1SCCN1C(=O)CCNCCNCCO (stereo not drawn)
ED50 [1]: 3 to 6 mg/kg | duration of action (antitussive) [3]: very prolonged duration of action

Cc1ccccc1OCC1SCCN1C(=O)Cn1ccnc1 (stereo not drawn) [2-tolyloxy-methyl-3-(imidazol-1'-yl)acetylthiazolidine]
antitussive properties (in words) [4]: not active in the cough tests | mucus regulating activity (in words) [2]: some mucus regulating action in the bronchitic rabbits, with a spectrum of action very close to that of carboxymethylcysteine | antitussive properties (in words) ([3]; dog cough test): not active in the cough tests

COc1ccccc1OCC1SCCN1C(=O)OC(C)(C)C (stereo not drawn) [3-BOC-2-(O-methoxyphenoxy)-methyl-thiazolidine]
ED50 [1]: 3 to 30 mg/kg

COc1ccccc1OCC1SCCN1C(=O)CSC(C)=O (stereo not drawn) [2-(o-methoxyphenoxy)methyl-3-acetylthioacetylthiazolidine]
antitussive properties (in words) [4]: good antitussive activity | ED50 ([4]; guinea pig cough test, i.p., 60 minutes after treatment, 60 min): 77.1 mg/kg | ED50 ([4]; guinea pig cough test, i.p., 60 minutes after treatment, listed as 3-Acetylthioacetyl-2-(o-methoxyphenoxymethyl)thiazolidine, 60 min): lower than 5 mg/kg | Fucose (mg/ml), AUC as a 100% compared to bronchitic controls [2]: 151% | Galactose (mg/ml), AUC as a 100% compared to bronchitic controls [2]: 57% | Mucus production (ml/kg), AUC as a 100% compared to bronchitic controls [2]: 127% | Phospholipids (mg/ml), AUC as a 100% compared to bronchitic controls [2]: 37% | Protein (mg/ml), AUC as a 100% compared to bronchitic controls [2]: 78% | Sialic acid (mg/ml), AUC as a 100% compared to bronchitic controls [2]: 107% | Viscosity (cps), AUC as a 100% compared to bronchitic controls [2]: 59% | mucus regulating activity (in words) [2]: mucus regulating properties | duration of action ([3]; dog cough test): more favourable duration of action in comparison to codeine | inhibition of the cough stimulus ([3]; dog, 20 mg/kg): 54.2%

COc1ccccc1OCC1SCCN1C(=O)CCNCCNCCO (stereo not drawn) [3-(3-(2-hydroxyethylamino)ethyl)aminopropanoyl-2-((O-methoxyphenoxy)methyl-thiazolidinebis maleate]
ED50 [1]: 3 to 6 mg/kg | duration of action (antitussive) [3]: very prolonged duration of action

CCOC(=O)[C@@H]1CSC(COc2ccccc2OC)N1 (stereo partly drawn) [4-carbethoxy-2-(o-methoxyphenoxy)methyl-thiazolidine]
ED50 [4, 5]: inactive | duration of action ([3]; dog cough test): short | % inhibition of cough stimulus ([3]; dog): 26.7%

COc1ccccc1OCC1SCCN1C(=O)C1CC1 (stereo not drawn) [3-cyclopropylcarbonyl-2-(o-methoxyphenoxy)methylthiazolidine]
antitussive properties (in words) [4]: devoid of any antitussive properties | Fucose (mg/ml), AUC as a 100% compared to bronchitic controls [2]: 103.6% | Galactose (mg/ml), AUC as a 100% compared to bronchitic controls [2]: 60.0% | Mucus production (ml/kg), AUC as a 100% compared to bronchitic controls [2]: 90% | Phospholipids (mg/ml), AUC as a 100% compared to bronchitic controls [2]: 74.5% | Protein (mg/ml), AUC as a 100% compared to bronchitic controls [2]: 57.9% | Sialic acid (mg/ml), AUC as a 100% compared to bronchitic controls [2]: 60% | Viscosity (cps), AUC as a 100% compared to bronchitic controls [2]: 92.6% | antitussive properties (in words) ([3]; dog cough test): devoid of any antitussive properties

COc1ccccc1OCC1N[C@H](C(=O)O)CS1 (stereo partly drawn) [4-carboxy-2-(o-methoxyphenoxymethyl)thiazolidine]
ED50 [4, 5]: inactive | Fucose (mg/ml), AUC as a 100% compared to bronchitic controls [2]: 55% | Galactose (mg/ml), AUC as a 100% compared to bronchitic controls [2]: 29% | Mucus production (ml/kg), AUC as a 100% compared to bronchitic controls [2]: 95% | Phospholipids (mg/ml), AUC as a 100% compared to bronchitic controls [2]: 49% | Protein (mg/ml), AUC as a 100% compared to bronchitic controls [2]: 48% | Sialic acid (mg/ml), AUC as a 100% compared to bronchitic controls [2]: 52% | Viscosity (cps), AUC as a 100% compared to bronchitic controls [2]: 40% | duration of action ([3]; dog cough test): middle | % inhibition of cough stimulus ([3]; dog): 43.8%

C=CCOc1ccccc1OCC1SCCN1C(=O)CN (stereo not drawn)
ED50 [1]: 3 to 30 mg/kg

COc1ccc2c3c1O[C@H]1[C@@H](O)C=C[C@H]4[C@@H](C2)N(C)CC[C@@]341 [codeine phosphate, reference compound]
ED50 ([4]; Cavia porcellus, ip, 1 h): ~23 mg/kg | % delay of the first cough ([4]; guinea pig cough test, control 100): 170% | duration of inhibition of the cough stimulus ([3]; dog, 8 mg/kg): 2 to 4 h | inhibition of the cough stimulus ([3]; dog, 8 mg/kg): 52%

CCOC(=O)C(=O)N1CCSC1COc1ccccc1OC (stereo not drawn) [3-ethoxyoxalyl-2-(o-methoxyphenoxy)methyl-thiazolidine]
antitussive properties (in words) [4]: devoid of any antitussive properties | Fucose (mg/ml), AUC as a 100% compared to bronchitic controls [2]: 149.3% | Galactose (mg/ml), AUC as a 100% compared to bronchitic controls [2]: 52.3% | Mucus production (ml/kg), AUC as a 100% compared to bronchitic controls [2]: 108.7% | Phospholipids (mg/ml), AUC as a 100% compared to bronchitic controls [2]: 59.8% | Protein (mg/ml), AUC as a 100% compared to bronchitic controls [2]: 62% | Sialic acid (mg/ml), AUC as a 100% compared to bronchitic controls [2]: 56.8% | Viscosity (cps), AUC as a 100% compared to bronchitic controls [2]: 65.1% | antitussive properties (in words) ([3]; dog cough test): devoid of any antitussive properties

CCOC(=O)[C@@H]1CSC(COc2ccccc2OC)(COc2ccccc2OC)N1 [2,2-di(o-methoxyphenoxy)methyl-4-carbethoxythiazolidine]
ED50 [1]: 116 mg/kg

COc1ccccc1OCC1SCCN1C(=O)CN (stereo not drawn) [3-glycinyl-2-(O-methoxyphenoxy)methyl-thiazolidine]
ED50 [1]: 3 to 30 mg/kg

COc1ccccc1OCC1SCCN1C(=O)Cn1ccnc1 (stereo not drawn) [3-(imidazol-1-yl)acetyl-2-(o-methoxyphenoxy)methyl-thiazolidine]
ED50 [1]: 40.6 mg/kg | Fucose (mg/ml), AUC as a 100% compared to bronchitic controls [2]: 97.5% | Galactose (mg/ml), AUC as a 100% compared to bronchitic controls [2]: 21.8% | Mucus production (ml/kg), AUC as a 100% compared to bronchitic controls [2]: 162.5% | Phospholipids (mg/ml), AUC as a 100% compared to bronchitic controls [2]: 65.8% | Protein (mg/ml), AUC as a 100% compared to bronchitic controls [2]: 55.2% | Sialic acid (mg/ml), AUC as a 100% compared to bronchitic controls [2]: 63.8% | Viscosity (cps), AUC as a 100% compared to bronchitic controls [2]: 39.1% | mucus regulating activity (in words) [2]: strong mucus regulating activity

COc1ccccc1OCC1SCCN1C(=O)CNC(C)=O (stereo not drawn) [3-(N-acetylaminoacetyl)-2-(O-methoxyphenoxy)methyl-thiazolidine]
ED50 [1]: 3 to 30 mg/kg
